{"source": "patent US20220380724A1", "about": "“COMPOSITION FOR PROMOTING PROLIFERATION OF STEM CELLS, CONTAINING, AS ACTIVE INGREDIENT, CP1P OR PHARMACEUTICALLY ACCEPTABLE SALT THEREOF” (INDUSTRY-UNIVERSITY COOPERATION FOUNDATION HANYANG …, priority 2019, published 2022)", "assay_type_in_all_cases": "cell-based, human", "key": {"hPSCs (CHA-ESC15)": {"test_system": "hPSCs (CHA-ESC15)", "assay": "hPSC cell proliferation ability (optical microscopy and cell count)", "details": "cultured 6 days; for cell proliferation rate increase compared to the control group (FIG. 3): hPSCs, 10 nM, counted day 7, control DMSO; for apoptosis seen in micrographs (FIG. 2): hPSCs, 50, 100 or 500 nM", "procedure": "They were shaken up and down, left and right to evenly disperse the cells and cultured within 24 hours in a 37° C. CO2 incubator. The culture medium was replaced with the E8 culture medium from which Y27632 was removed, and then the cells were cultured by replacing the culture medium every day until the next passage.\nOn the 7th day, the cells were observed using an optical microscope at a magnification of 100 times.\nIn addition, in order to measure the number of cells, the culture medium of the cells was removed on the 7th day of culture, and they were washed once with PBS. Then, for PBS-removed cells, cell dissociation buffer ([…]) was used to cause single-cell. The separated cells were centrifuged at 1000 rpm for 2 minutes to remove the buffer. Then, the cells were suspended in an E8 medium, and the number of cells was measured using EVE™ Automated Cell Counter (NanoEnTek).\nMeanwhile, the control group was tested in the same manner as above, except that hPSCs were treated with DMSO (AppliChem GE, A3672,0100).\nThe culture was performed for 6 days, and hPSCs were observed on the 7th day. The proliferation rate was calculated as {(total number of cells in P1P, cP1P, or SW treatment group)/(total number of cells in the control group)}×100."}, "hPSCs [1]": {"test_system": "hPSCs", "assay": "Alkaline phosphatase staining of hPSCs (undifferentiation ability)", "details": "10 nM, compared to DMSO control", "procedure": "In order to check whether the differentiation ability of hPSCs was changed by cP1P treatment, hPSCs were treated with 10 nM cP1P or a control group (vehicle, DMSO) in the same manner as in Example 2."}, "hPSCs [2]": {"test_system": "hPSCs", "assay": "Apoptosis and cytotoxicity assay (Annexin V / 7-AAD)", "details": "5 days; for apoptosis marker, (Annexin V, early apoptosis marker; FIG. 8): DMSO control 0.5%; for apoptosis marker, (7-AAD, late apoptosis marker; FIG. 8): DMSO control 6.2%", "procedure": "In order to confirm apoptosis, hPSCs were treated with 10 nM cP1P in the same manner as in Example 1, hPSCs were separated using cell dissociation buffer (Thermo Fisher Scientific US, A1110501), and harvested cells were washed with DPBS (pH 7.4) 2 times. After centrifuged at 2,000 rpm for 5 minutes. The cells were resuspended at 1×10^5 cells per 100 ul of 1× binding buffer to which 10× binding buffer (0.1 M HEPES, 1.4 M NaCl, 25 mM CaCl2, pH 7.4) was diluted. They were added with 5 ul each of Annexin V (BD bioscience US, 556422) and 7-AAD (BD bioscience U.S. Pat. No. 1,559,925) and mixed slowly. They were cultured for 15 minutes in the dark at room temperature and added with 400 ul of 1× binding buffer. Then, analysis was performed using the Annexin V apoptosis detection kit (BD Pharmingen US, 556547).\nIn order to confirm whether apoptosis and cytotoxicity were induced when hPSCs were treated with cP1P, hPSCs were treated with 10 nM or 100 nM cP1P for 5 days in the same manner as in Example 6, and then Annexin V apoptosis detection kit (BD Pharmingen US, 556547) was used for analysis."}, "hPSCs [3]": {"test_system": "hPSCs", "assay": "hPSC cell cycle by PI flow cytometry", "details": "10 nM", "procedure": "For flow cytometry, hPSCs were treated with 10 nM cP1P in the same manner as in Example 1, and hPSCs were separated using cell dissociation buffer (Thermo Fisher Scientific US, A1110501), and harvested cells were washed three times with DPBS (pH 7.4). After washing, the supernatant was removed. During washing, cold 70% (v/v) ethanol was added dropwise to the cell pellet. The cells were fixed at 4° C. for 1 hour and washed 3 times with DPBS (pH 7.4). After centrifugation at 2,000 rpm for 5 minutes, 50 uL of 100 μg/ml RNase (Sigma-Aldrich US, R4642) was added. They were mixed well and added with 200 μl of PI (propidium iodide) (Sigma-Aldrich US, P4170) (50 μg/ml) to stain the DNA. Then, the DNA content was measured using flow cytometry (BD)."}, "hPSCs [4]": {"test_system": "hPSCs", "assay": "RNA sequencing of hPSCs after long-term (15 passages) treatment", "details": "10 nM", "procedure": "Specifically, hPSCs were treated and cultured with 10 nM cP1P or were treated and cultured with DMSO as a control group in the same manner as in Example 1. The passage in which cP1P was first treated was defined as 0 and cultured up to a total of 15 passages. After the cells were recovered, and RNAs were extracted. The RNA sequencing analysis was performed with a next-generation sequencing analyzer (Illumina HiSeq 2500) by DGIST (Daegu Gyeongbuk Institute of Science and Technology) asked to analyze the cells."}, "CDK1, Cyclin B": {"test_system": "CDK1, Cyclin B", "assay": "Expression of cell cycle regulatory genes in hPSCs", "details": "10 nM, compared to control", "procedure": "(§1) For expression analysis of cell cycle regulatory genes, hPSCs were treated with 10 nM cP1P in the same manner as in Example 1. After hPSCs were washed with PBS, hPSCs were fixed in 4% (w/v) PFA (Santa Cruz Biotechnology US, 30525-89-4) for 5 minutes, or after the protein of hPSC cells was recovered, followed by electrophoresis. The expression of pluripotency genes was analyzed (immunofluorescence analysis or Western blot analysis) using anti-REX1(Abcam UK, ab50828), anti-OCT4(Santa Cruz Biotechnology US, sc-5279), anti-SOX2(Abcam UK, ab97959), anti-NANOG(Cell signaling US, 4893s), anti-E-cadherin(Cell signaling US, 24E10), or anti-SSEA4(Merck millipore US, 90231) antibody. Meanwhile, the control group was tested in the same manner as above, except that hPSCs were treated with DMSO (AppliChem GE, A3672,0100)."}, "hPSCs [5]": {"test_system": "hPSCs", "assay": "hPSC proliferation during subculture (total number of cells)", "details": "continuous 10 nM, subculture 3 times, P<0.01", "procedure": "In order to check whether the change in hPSCs proliferation ability by cP1P treatment is maintained during subculture, hPSCs were continuously treated with 10 nM cP1P in the same manner as in Example 1, and after subculture 3 times, the proliferation change of hPSCs was confirmed."}, "[6]": {"test_system": "REX1, E-Cadherin, OCT4, SOX2, NANOG, SSEA-4", "assay": "Pluripotency marker expression in hPSCs (immunofluorescence, pluripotent array kit, flow cytometry, Western blot)", "details": "100 nM", "procedure": "as §1\nSpecifically, hPSCs were treated with 100 nM cP1P in the same manner as in Example 1. Immunofluorescence analysis was performed in the same manner as in Example 6. Expression of pluripotency-related genes was analyzed using a pluripotent array kit (R&D System US, ARY101). Flow cytometry was performed in the same manner as in Example 6."}}}
{"smiles": "CCCCCCCCCCCCCC[C@@H](O)[C@@H](O)[C@@H](N)COP(=O)(O)O", "note": "[P1P, phytosphingosine-1-phosphate]", "values": [{"measurement": "cell proliferation rate increase compared to the control group (FIG. 3)", "setting": "hPSCs (CHA-ESC15)", "value": "about 1.55 times"}, {"measurement": "apoptosis seen in micrographs (FIG. 2)", "setting": "hPSCs (CHA-ESC15); observed day 7", "value": "apoptosis occurred"}]}
{"smiles": "CCCCCCCCCCCCC/C=C/[C@@H](O)[C@@H](N)COP(=O)(O)O", "note": "[S1P, sphingosine-1-phosphate]", "values": [{"measurement": "cell proliferation rate increase compared to the control group (FIG. 3)", "setting": "hPSCs (CHA-ESC15)", "value": "about 1.25 times"}, {"measurement": "apoptosis seen in micrographs (FIG. 2)", "setting": "hPSCs (CHA-ESC15); observed day 7", "value": "apoptosis occurred"}]}
{"smiles": "CCCCCCCCCCCCCC[C@@H](O)[C@H]1OP(=O)(O)OC[C@@H]1N", "note": "[cP1P, o-cyclic phytosphingosine-1-phosphate]", "values": [{"measurement": "undifferentiation ability (alkaline phosphatase staining, FIG. 4)", "setting": "hPSCs [1]", "value": "well maintained"}, {"measurement": "apoptosis compared to the control group (FIG. 8)", "setting": "hPSCs [2]; 10 nM or 100 nM", "value": "reduced"}, {"measurement": "cytotoxicity compared to the control group (FIG. 8)", "setting": "hPSCs [2]; 10 nM or 100 nM", "value": "significantly lowered"}, {"measurement": "apoptosis marker, (Annexin V, early apoptosis marker; FIG. 8)", "setting": "hPSCs [2]; 10 nM", "value": 0.9, "unit": "%"}, {"measurement": "apoptosis marker, (7-AAD, late apoptosis marker; FIG. 8)", "setting": "hPSCs [2]; 10 nM", "value": 3.9, "unit": "%"}, {"measurement": "apoptosis marker, (Annexin V, early apoptosis marker; FIG. 8)", "setting": "hPSCs [2]; 100 nM", "value": 1.9, "unit": "%"}, {"measurement": "apoptosis marker, (7-AAD, late apoptosis marker; FIG. 8)", "setting": "hPSCs [2]; 100 nM", "value": 5.3, "unit": "%"}, {"measurement": "increase of cell proliferation compared to the control group (FIG. 7A)", "setting": "hPSCs [3]", "value": "≥ 12", "unit": "%"}, {"measurement": "number of cells in G2/M phase (FIG. 7B)", "setting": "hPSCs [3]; compared to control, P<0.01", "value": "significantly increased"}, {"measurement": "number of cells in sub-GO phase (apoptotic cells, FIG. 7B)", "setting": "hPSCs [3]; compared to control, P>0.05", "value": "significantly reduced"}, {"measurement": "cell proliferation, experimental group (FIG. 7A)", "setting": "hPSCs [3]; control group 48%", "value": 60, "unit": "%"}, {"measurement": "cell proliferation rate increase compared to the control group (FIG. 3)", "setting": "hPSCs (CHA-ESC15)", "value": 1.78, "unit": "times"}, {"measurement": "cell proliferation ability (FIG. 2)", "setting": "hPSCs (CHA-ESC15); hPSCs, 50, 100 or 500 nM every 2 days, observed day 7, compared to P1P or S1P", "value": "significantly increased"}, {"measurement": "cluster 5 (C5) gene expression (cell development, embryo development, cell proliferation genes)", "setting": "hPSCs [4]; decreased in untreated control", "value": "stably maintained"}, {"measurement": "cluster 2 (C2) gene expression (oxidative stress and apoptotic process genes)", "setting": "hPSCs [4]; increased in untreated control", "value": "decreased"}, {"measurement": "gene expression changes (DEG) compared with passage 0 (FIG. 10)", "setting": "hPSCs [4]; no cP1P-treated group 575", "value": 197}, {"measurement": "expression of genes regulating the cell cycle (CDK1, Cyclin B; FIGS. 7C to 7E)", "setting": "CDK1, Cyclin B", "value": "increased"}, {"measurement": "total number of cells as subculture was performed (FIG. 6)", "setting": "hPSCs [5]", "value": "increased significantly"}, {"measurement": "expression of pluripotency marker genes REX1, E-Cadherin, OCT4 and SOX2 (immunofluorescence, FIG. 9A)", "setting": "[6]; compared to control", "value": "increased"}, {"measurement": "protein expression of OCT4 and E-Cadherin (FIG. 9D)", "setting": "[6]; compared to control", "value": "increased"}, {"measurement": "spots of pluripotency-related genes OCT4, NANOG, SOX2 and E-Cadherin (array, FIG. 9B)", "setting": "[6]; compared to control", "value": "detected to be high"}, {"measurement": "protein expression of SSEA-4 (FIG. 9C)", "setting": "[6]; control 68.8%", "value": 82.2, "unit": "%"}, {"measurement": "protein expression of E-Cadherin (FIG. 9C)", "setting": "[6]; control 81.8%", "value": 85.6, "unit": "%"}, {"measurement": "protein expression of REX1 (FIG. 9C)", "setting": "[6]; control 86.8%", "value": 95.7, "unit": "%"}, {"measurement": "protein expression of OCT4 (FIG. 9C)", "setting": "[6]; control 95.2%", "value": 96.5, "unit": "%"}]}
